System: cancer cells A-549
Test: Anti-tumor agent test in nude mice transplanted subcutaneously with an A-549 cancer cells sheet
Format: in vivo
Protocol: A cell culture base was coated with the temperature-responsive polymer poly(N-isopropylacrylamide) in an amount of 1.9 μg/cm^2 and the cancer cells A-549 was cultivated (2×10^4 cells were seeded; 37° C. in 5% CO2). Three days later, the cancer cells (A-549) on the culture base were confirmed to have become confluent; thereafter, a poly(vinylidene difluoride) [PVDF] membrane not coated with a fibrin gel was gently placed over the cultured cell sheet so that the cultured cancer cells adhered to it; then, the cell culture base was cooled at 20° C. for 60 minutes. After the cooling, a sheet of cancer cells (7 mm×17 mm×2 mm; 5×10^5 cells) was detached together with PVDF membrane. The back of each of 10 nude mice was incised linearly beneath the skin and the subcutaneous tissue was detached with forceps to create a pocket, into which the above-described cancer cells sheet was inserted. After the inserting, the incised part was sutured to complete the transplantation. The dimensions of the tumor that developed after the transplantation were measured over the skin with a micrometer and the volume of the tumor was calculated assuming that it was an ellipsoid. The volume of the tumor was also calculated, this time on the assumption that it was a cylindroid (volume of cylindroid=n/4×major axis of the tumor×minor axis of the tumor×thickness of the tumor). Four weeks after the transplantation, the mean volume of ellipsoid was 578.7+322.8 mm^3, the mean volume of cylindroid was 1258.7+897.9 mm^3, and the mean tumor weight was 785.4±394 mg. The decrease in the tumor volume that occurred immediately after the transplantation as shown in FIG. 1 (tumor assumed as an ellipsoid) and FIG. 2 (as a cylindroid) was absent and the tumor grew bigger as more days elapsed after the transplantation.
The cancer cells transplanted animals prepared in Example 2 were administered a total of four times on a once-a-week basis with 3 mg of 5-fluorouracil (5-FU), a known anti-tumor agent, through the tail vein as it was dissolved in 0.3 ml of 1% ethyl alcohol containing physiological saline. Four weeks after the administration, the mean volume of ellipsoid was 279.6±127.1 mm^3, the mean volume of cylindroid was 619.3±262.9 mm^3, and the mean tumor weight was 369.3±123 mg. As it turned out, the cancer cells transplanted animals described in the present invention got the volume and weight of the tumor to be reduced by receiving the anti-tumor agent. Obviously, the cancer cells transplanted animals of the present invention are useful in selecting an effective anti-tumor agent.

[1] = A-549 cell sheet transplanted nude mice of Example 2, 3 mg through the tail vein once a week, four times, four weeks after the administration

Structure (SMILES): O=c1[nH]cc(F)c(=O)[nH]1 [5-fluorouracil]
- mean tumor weight [1]: 369.3 ± 123 mg
- mean volume of cylindroid (tumor volume) [1]: 619.3±262.9 mm^3
- mean volume of ellipsoid (tumor volume) [1]: 279.6±127.1 mm^3
- volume and weight of the tumor (effect of receiving the anti-tumor agent) (A-549 cell sheet transplanted nude mice, compared with untreated animals of Example 2): reduced

— patent publication US20080289052A1, “Method of Constructing Animal Having Cancer Cells Transplanted Thereinto” (priority 2004, published 2008)
